pIC50: −log10 of the molar value.
Tests used:
Type in all cases: protein-complex assay
[1] = target: T1, Gamma-secretase (Homo sapiens) (UniProt Q96BI3+Q9NZ42+Q8WW43+P49768+Q92542+P49810); test: Inhibition of beta amyloid protein 40 production relative to 4-chloro-N-(2,5-difluorophenyl)-N-(1-(2-(3-(pyrrolidin-1-yl)propoxy)phenyl)ethyl)benzenesulfonamide
[2] = target: Gamma-secretase; test: Inhibition of beta amyloid protein 40 production
[3] = target: T1, Gamma-secretase (Homo sapiens); test: Inhibition of beta amyloid protein 40 production relative to 4-chloro-N-phenyl-N-(1-(2-(3-(pyrrolidin-1-yl)propoxy)phenyl)ethyl)benzenesulfonamide

Question: With `CC(c1ccccc1OCCCN1CCCC1)N(c1ccc(C(=O)c2ccccc2)cc1)S(=O)(=O)c1ccc(Cl)cc1` (centres undefined) as the compound, how does the Ratio IC50 [1] read?
Answer: Its Ratio IC50 is 0.6.

Question: What about the pIC50 [2] of the same compound?
Answer: The pIC50 was 5.49.

Question: `COc1cccc(N(C(C)c2ccccc2OCCCN2CCCC2)S(=O)(=O)c2ccc(Cl)cc2)c1` (centres undefined) was tested. Which Ratio IC50 [1] did it give?
Answer: Its Ratio IC50 is 3.8.

Question: What about the pIC50 [2] of the same compound?
Answer: Its pIC50 is 6.28.

Question: How did the Ratio IC50 [3] turn out when `CC(c1ccccc1OCCCN1CCCC1)N(c1ccccc1)S(=O)(=O)c1ccccc1` (centres undefined) was run?
Answer: The Ratio IC50 was 0.01.

Question: And the pIC50 [2]?
Answer: Its pIC50 is 6.16.

Question: How did the Ratio IC50 [1] turn out when `CC(c1ccccc1OCCCN1CCCC1)N(c1ccccc1Cl)S(=O)(=O)c1ccc(Cl)cc1` (centres undefined) was run?
Answer: Its Ratio IC50 is 4.

Question: And the pIC50 [2]?
Answer: Its pIC50 is 6.31.

Question: With `CC(c1ccccc1OCCCN1CCCC1)N(c1ccccc1C(=O)c1ccccc1)S(=O)(=O)c1ccc(Cl)cc1` (centres undefined) as the compound, how does the Ratio IC50 [1] read?
Answer: The Ratio IC50 was 1.7.

Question: And the pIC50 [2]?
Answer: Its pIC50 is 5.92.

Question: With `CC(c1ccccc1OCCCN1CCOCC1)N(c1cc(F)ccc1F)S(=O)(=O)c1ccc(Cl)cc1` (centres undefined) as the compound, how does the pIC50 [2] read?
Answer: The pIC50 was 5.36.

Question: What does the source list for `CC(c1ccccc1OCCCN1CCCC1)N(c1ccccc1)S(=O)(=O)c1ccc(F)cc1` (centres undefined)?
Answer: Ratio IC50 [3]: 0.03; pIC50 [2]: 6.46

Question: With `CC(c1ccc(C(=O)c2ccc(COC(=O)NCCCCCNC(=O)CCCC[C@@H]3SC[C@@H]4NC(=O)N[C@@H]43)cc2)cc1OCCCN1CCCC1)N(c1cc(F)ccc1F)S(=O)(=O)c1ccc(Cl)cc1` (some centres undefined) as the compound, how does the Ratio IC50 [1] read?
Answer: Its Ratio IC50 is 690.

Question: And the pIC50 [2]?
Answer: Its pIC50 is 8.54.

Question: For `CC(c1ccc(C(=O)c2ccccc2)cc1OCCCN1CCCC1)N(c1cc(F)c(OCC(=O)NCCCCCCCCNC(=O)CCCC[C@@H]2SC[C@@H]3NC(=O)N[C@@H]32)cc1F)S(=O)(=O)c1ccc(Cl)cc1` (some centres undefined), which Ratio IC50 [1] is on record?
Answer: Its Ratio IC50 is 100.

Question: What about the pIC50 [2] of the same compound?
Answer: Its pIC50 is 7.70.

Question: `CC(c1ccccc1OCCCN1CCCC1)N(c1ccccc1)S(=O)(=O)c1ccc(C(F)(F)F)cc1` (centres undefined) was tested. Which Ratio IC50 [3] did it give?
Answer: Its Ratio IC50 is 0.03.

Question: And the pIC50 [2]?
Answer: Its pIC50 is 6.40.

Question: How did the Ratio IC50 [1] turn out when `CC(c1ccc(C(=O)c2ccccc2)cc1OCCCN1CCCC1)N(c1ccccc1)S(=O)(=O)c1ccc(Cl)cc1` (centres undefined) was run?
Answer: The Ratio IC50 was 0.1.

Question: And the pIC50 [2]?
Answer: The pIC50 was 4.77.

Question: `CC(c1ccc(C(=O)c2ccccc2)cc1OCCCN1CCCC1)N(c1cc(F)ccc1F)S(=O)(=O)c1ccc(Cl)cc1` (centres undefined) was tested. Which Ratio IC50 [1] did it give?
Answer: The Ratio IC50 was 15.

Question: What about the pIC50 [2] of the same compound?
Answer: Its pIC50 is 6.89.

Question: With `CCN(CC)CCCOc1ccccc1C(C)N(c1cc(F)ccc1F)S(=O)(=O)c1ccc(Cl)cc1` (centres undefined) as the compound, how does the pIC50 [2] read?
Answer: Its pIC50 is 6.00.

Question: How did the pIC50 [2] turn out when `CC(c1ccccc1OCCCN1CCCCC1)N(c1cc(F)ccc1F)S(=O)(=O)c1ccc(Cl)cc1` (centres undefined) was run?
Answer: The pIC50 was 5.68.

Question: How did the Ratio IC50 [1] turn out when `CC(c1ccc(C(=O)c2ccc(COC(=O)NCCCCCCCCNC(=O)CCCC[C@@H]3SC[C@@H]4NC(=O)N[C@@H]43)cc2)cc1OCCCN1CCCC1)N(c1cc(F)ccc1F)S(=O)(=O)c1ccc(Cl)cc1` (some centres undefined) was run?
Answer: The Ratio IC50 was 328.

Question: What about the pIC50 [2] of the same compound?
Answer: Its pIC50 is 8.21.

Question: For `CC(c1ccccc1OCCCN1CCCC1)N(c1cccc(Cl)c1)S(=O)(=O)c1ccc(Cl)cc1` (centres undefined), which Ratio IC50 [1] is on record?
Answer: The Ratio IC50 was 3.8.

Question: And the pIC50 [2]?
Answer: The pIC50 was 6.28.

Question: What does the source list for `CC(c1ccccc1OCCCN1CCCC1)N(c1cccc(C(=O)c2ccccc2)c1)S(=O)(=O)c1ccc(Cl)cc1` (centres undefined)?
Answer: Ratio IC50 [1]: 0.7; pIC50 [2]: 5.52

Question: With `CC(c1ccccc1OCCCN1CCCC1)N(c1ccc(Cl)cc1)S(=O)(=O)c1ccc(Cl)cc1` (centres undefined) as the compound, how does the Ratio IC50 [1] read?
Answer: Its Ratio IC50 is 1.5.

Question: And the pIC50 [2]?
Answer: The pIC50 was 5.89.

Question: With `COc1ccccc1N(C(C)c1ccccc1OCCCN1CCCC1)S(=O)(=O)c1ccc(Cl)cc1` (centres undefined) as the compound, how does the Ratio IC50 [1] read?
Answer: The Ratio IC50 was 4.3.

Question: And the pIC50 [2]?
Answer: The pIC50 was 6.33.

Question: For `CC(c1ccccc1OCCCN1CCCC1)N(c1ccccc1)S(=O)(=O)c1ccc(Cl)cc1` (centres undefined), which Ratio IC50 [1] is on record?
Answer: The Ratio IC50 was 200.

Question: What about the pIC50 [2] of the same compound?
Answer: Its pIC50 is 8.00.

Question: How did the pIC50 [2] turn out when `CC(c1ccccc1OCCCN1CCCC1)N(c1cc(F)ccc1F)S(=O)(=O)c1ccc(Cl)cc1` (centres undefined) was run?
Answer: The pIC50 was 5.70.

Question: Which Ratio IC50 [1] does the source give for `CC(c1ccc(C(=O)c2ccccc2)cc1OCCCN1CCCC1)N(c1cc(F)c(OCC(=O)NCCCCCNC(=O)CCCC[C@@H]2SC[C@@H]3NC(=O)N[C@@H]32)cc1F)S(=O)(=O)c1ccc(Cl)cc1` (some centres undefined) here?
Answer: The Ratio IC50 was 200.

Question: And the pIC50 [2]?
Answer: Its pIC50 is 8.00.

Question: Which results are given for `COc1ccc(N(C(C)c2ccccc2OCCCN2CCCC2)S(=O)(=O)c2ccc(Cl)cc2)cc1` (centres undefined)?
Answer: Ratio IC50 [1]: 1.8; pIC50 [2]: 5.96

Question: `CC(c1ccccc1OCCCN1CCCC1)N(c1ccccc1)S(=O)(=O)c1ccc(Br)cc1` (centres undefined) was tested. Which Ratio IC50 [3] did it give?
Answer: The Ratio IC50 was 0.005.

Question: What about the pIC50 [2] of the same compound?
Answer: The pIC50 was 5.72.

From ChEMBL document CHEMBL1145309, “Synthesis of biotinylated photoaffinity probes based on arylsulfonamide gamma-secretase inhibitors” (Bioorg Med Chem Lett, 2006)
